Key:
[1] = system: normal human dermal fibroblasts; assay: Type I collagen production by normal human dermal fibroblasts (ELISA, per unit protein); type: cell-based; conditions: for production amount of collagen (relative value, no sample = 100, per unit amount of protein): 1.5×10^−5 M, 48 hours culture, n=6, FIG. 1, t-test vs control; for Type I collagen amount (ng/μg protein) (average ± SD): 48 hours, n=6, control 8.91 ± 0.26, significant (<1%)
Protocol: Skin collagen enhancing activity of menaquinone-7 was compared with those of vitamin K1 and menaquinone-4, using normal human fibroblasts. A menaquinone-7 reagent (Wako Pure Chemical Industries, Ltd.) was used after purity validation by HPLC. The comparison was performed at a setting concentration of 1.5×10^−5 M, which is a maximum solubility of vitamin Ks in a cell culture system. Vitamin K1 (Wako Pure Chemical Industries, Ltd.) and menaquinone-4 (Sigma) were used after purity validation by HPLC.
Normal human dermal fibroblasts (manufactured by Kurabo Industries Ltd.) were inoculated on a 96-well microplate at a cell density of 2.0×10^4 cells per well using a Dulbecco's modified Eagle's medium (DMEM) (Sigma) containing 0.5% by weight of fetal bovine serum (FBS). The medium was replaced, 48 hours after the inoculation, by DMEM containing 0.5% by weight of FBS and menaquinone-7 in a concentration shown in Table 5. A test maximum concentration solution was prepared by dissolving menaquinone-7 in ethanol and diluting it 100 times with a DMEM containing 0.5% FBS. The testing method was confirmed to be valid using magnesium ascorbic acid phosphate (VC-PMg) as a positive control. The medium containing a sample was cultured for 48 hours, and the medium supernatant was collected and subjected to ELISA for measuring the amount of type I collagen. The cells were lysed in a 0.5% Triton X-100 solution, and the protein amount was measured.
A medium and a type I collagen solution for a standard curve were placed on each well of a high-absorption ELISA plate, and coating at 37° C. for 2 hours was performed, followed by blocking with a 1% bovine serum albumin (BSA) solution at 37° C. for 1 hour. Primary antibody reaction was performed using anti-human collagen type I antibody (rabbit) diluted with a 0.3% BSA solution at 37° C. for 1 hour. Secondary antibody reaction was performed using Histofine MAX-PO(R) (rabbit) diluted with a phosphate buffer at 37° C. for 1 hour. A phosphate-citrate buffer (0.1 M, pH 4.0) solution containing 0.3 mg/mL of 2,2′-azinobis(3-ethylbenzothiazoline-6-sulfonic acid)diammounium salt (ABTS) and 0.03% hydrogen peroxide was added thereto, followed by reaction for 20 min The absorbance of the reaction solution was measured at 405 nm with a microplate reader.
The type I collagen amount in the medium was determined from the standard curve prepared by measurement on the same ELISA plate, and the type I collagen amount per unit amount of protein was calculated by dividing the type I collagen amount in the medium by the total protein amount of the cells.
The test was performed at n=6 for each group containing a sample, and the results are each shown as an average +standard deviation. The statistical processing was performed by a Student t-test against the control group not containing the sample, and the symbol * indicates a significance level of less than 1%.
The collagen enhancing activities of menaquinone-7 for human dermal fibroblasts were investigated in the concentration range shown in Table 5. The test of each group containing a sample was performed at n=6, and the results are each shown as an average value. The statistical processing was performed by a Student t-test against the control group not containing the sample, and the symbol * indicates a significance level of less than 1%.

[2] = Vitamin K (MK-7) concentration in rat skin after feeding a menaquinone-7-containing diet; type: in vivo; conditions: Wistar rats, diet with menaquinone-7 150 μg/g, free feeding 90 days, average ± SD
Protocol: Wistar rats (male, 5-week old) were freely fed with purified feed AIN93G (manufactured by Oriental Yeast) for one week for habituation, and then separated into groups each consisting of three rats so that the total weight of each group was the same. Three rats in each group were freely fed with a rat standard diet (AIN93G) or a menaquinone-7-containing feed (menaquinone-7: 150 μg/g) composed of rat standard diet (AIN93G) and menaquinone-7 for 90 days. Then, vitamin K concentration in the skin was measured. Vitamin K was analyzed by high-performance liquid chromatography with post-column reduction using platinum black and fluorescence detection (Sato, et al., Biochim Biophys. Acta, 1622, 145-150, 2003).

[3] = system: skin collagen; assay: Skin collagen amount in rats fed MK7-containing diets (Sircol Collagen Assay Kit); type: in vivo, Crl:CD(SD)(SPF) rats; conditions: 90 days; for Type I collagen amount (μg/mg wet skin weight) (average ± SD): MK7-free 38.43 ± 4.56, not significant; for Rate of increase of collagen (%): vs MK7-free diet group
Protocol: Four-week old male Crl:CD(SD)(SPF) rats were habituated after arrival till the start of administration, including one week for quarantine. During the quarantine and habituation, general conditions were observed every day, and the weights were measured on the first day (the day following the arrival), the third day, and the seventh day. The rats were separated into four groups each consisting of five rats so that the total weight of each group was the same.
Rats were freely fed for 90 days with any one of three types of menaquinone-7-containing feeds by adding menaquinone-7 to rat standard diet AIN93G: high MK7 diet (menaquinone-7: 45.4 μg/g diet), moderate MK7 diet (menaquinone-7: 15 μg/g diet), and low MK7 diet (menaquinone-7: 4.54 μg/g diet); or MK7-free diet.
The rats were subjected to fasting on the last day and then dissected. The hair at the abdomen region was carefully shaved with hair clippers, and the skin including the derm was sampled. The skin was cut into about 100 mg pieces and they were exactly weighed. The skin collagen amount was measured with a skin collagen measurement kit (trade name: Sircol Collagen Assay Kit, manufactured by Biocolor). Increased amounts of collagen in three groups fed with the diet containing MK7 were compared with that in the group fed with the MK7-free diet as a control. The statistical processing was performed by a Student t-test. A significance level P<0.05 was determined as to have significant difference. […] In the table, the symbol * means a significant difference.

| SMILES | production amount of collagen (relative value, no sample = 100, per unit amount of protein) [1] | production amount of collagen ([1]; 6.0×10^−5 M) | Type I collagen amount (ng/μg protein) (average ± SD) ([1]; 0.5 × 10^−6M) | Type I collagen amount (ng/μg protein) (average ± SD) ([1]; 0.5 × 10^−6M, listed as menaquinone-7) | Type I collagen amount (ng/μg protein) (average ± SD) ([1]; 1 × 10^−5M) | Type I collagen amount (ng/μg protein) (average ± SD) ([1]; 1 × 10^−6M) | Type I collagen amount (ng/μg protein) (average ± SD) ([1]; 3 × 10^−6M) | menaquinone-7 amount necessary for promoting collagen production ([1]; conversion of 0.5×10^−6 M) | menaquinone-7 amount necessary for promoting collagen production ([1]; human dermal fibroblasts, lowest concentration tested) | MK-7 concentration (ng/g) in skin [2] | Type I collagen amount (μg/mg wet skin weight) (average ± SD) ([3]; MK7 4.54 μg/g feed) | Rate of increase of collagen (%) ([3]; MK7 4.54 μg/g feed) | Type I collagen amount (μg/mg wet skin weight) (average ± SD) ([3]; MK7 15.0 μg/g feed) | Rate of increase of collagen (%) ([3]; MK7 15.0 μg/g feed) | Rate of increase of collagen (%) ([3]; MK7 45.4 μg/g feed) | amount of collagen in skin, dose dependence ([3]; oral administration, 4.54 to 45.4 μg/g feed) |
| --- | --- | --- | --- | --- | --- | --- | --- | --- | --- | --- | --- | --- | --- | --- | --- | --- |
| CC(C)=CCC/C(C)=C/CC/C(C)=C/CC/C(C)=C/CC1=C(C)C(=O)c2ccccc2C1=O [Menaquinone-4, menaquinone-4, reference compound] | only menaquinone-7 significantly increased | did not increase at all | – | – | – | – | – | – | – | – | – | – | – | – | – | – |
| CC(C)=CCC/C(C)=C/CC/C(C)=C/CC/C(C)=C/CC/C(C)=C/CC/C(C)=C/CC/C(C)=C/CC1=C(C)C(=O)c2ccccc2C1=O [Menaquinone-7, menaquinone-7] | significantly increased | – | 10.66 ± 0.48 ng/μg protein | significantly promotes production of type I collagen | 11.03 ± 0.23 ng/μg protein | 10.26 ± 0.44 ng/μg protein | 10.41 ± 0.49 ng/μg protein | 325 ng/g | 500 nM | 427 ± 243 ng/g | 40.97 ± 6.69 μg/mg wet skin weight | 6.6% | 43.33 ± 2.42 μg/mg wet skin weight | 12.8% | 17.6% | tendency of dose-dependently increasing the amount of collagen |
| CC1=C(C/C=C(\C)CCC[C@H](C)CCC[C@H](C)CCCC(C)C)C(=O)c2ccccc2C1=O [vitamin K1, reference compound] | only menaquinone-7 significantly increased | – | – | – | – | – | – | – | – | – | – | – | – | – | – | – |

Reference: patent publication US20150164767A1, “Skin Collagen Enhancing Agent” (J-Oil Mills, Inc., priority 2011, published 2015)
